Data: paper PMC7584369, “Di-bromo-Based Small-Molecule Inhibitors of the PD-1/PD-L1 Immune Checkpoint” (Journal of Medicinal Chemistry, 2020)
Values joined by “and” are separate entries in the source; they are usually repeats but may differ in a detail not shown here. Identical values can stand only once. “Also recorded” adds a separate entry of the source. Counter-ions that a name gives are not always drawn.

Tests used:
wtPD-1/PD-L1 complex = biological target: T1, wtPD-1/PD-L1 complex (Homo sapiens, UniProt Q9NZQ7); test: AIDA-NMR with wild-type proteins; type: binding; details: wild-type PD-1
T1 construct: hPD-L1 residues, 18–134, C-terminal His-tag; His-tag (C); made in house; host or cells: Escherichia coli BL21 (DE3)

N66A-PD-1/PD-L1 complex = biological target: T2, N66A-PD-1/PD-L1 complex (Homo sapiens, UniProt Q9NZQ7); test: w-AIDA-NMR (weak antagonist-induced dissociation assay); type: binding; details: equimolar concentrations
T2 construct: hPD-L1 residues, 18–134, C-terminal His-tag; His-tag (C); made in house; host or cells: Escherichia coli BL21 (DE3)
Source text: Because HTRF is prone to “false positives”, especially aggregators and autofluorophores, we validated the results using the w-AIDA-NMR assay developed by us. […] In the w-AIDA-NMR 2D experiment, ^15N mutated PD-1 gives a characteristic pattern of peaks (Figure 2A). Peak assignment is not necessary as we observe a relative change in the intensity and positions of the reference peaks upon the addition of ligand/inhibitors. Upon the formation of the complex with PD-L1, most of the cross-peaks in the ^1H–^15N HMQC spectrum of PD-1 became broader and less intense with some of the cross-peaks disappearing (Figure 2B). If the inhibitor is capable of disrupting the complex, the resulting spectrum should come back to the reference one of PD-1 alone, as tested inhibitors are PD-L1 binders. […]
Uniform ^15N labeling was obtained by expressing proteins in the M9 minimal medium containing ^15NH4Cl as the sole nitrogen source. […] All spectra were recorded at 300 K using a Bruker Avance III 600 MHz spectrometer equipped with the nitrogen cryoprobe. The ability of tested compounds to dissociate PD-L1/(wild type, wt or N66A)PD-1 was evaluated using the (weak) antagonist-induced dissociation assay (w-AIDA-NMR). […] During the experiment, the ^1H–^15N signals were monitored by SOFAST HMQC.

[1] = biological target: T3, PD-1/PD-L1 complex (hPD-L1 and hPD-1) (Homo sapiens, UniProt Q9NZQ7); test: Homogeneous time-resolved fluorescence (HTRF) assay, Cis-Bio kit; type: binding
T3 construct: purchased Cis-Bio

human PD-L1 [2] = biological target: T4, human PD-L1 (Homo sapiens, UniProt Q9NZQ7); test: MicroScale Thermophoresis (MST) binding assay, human PD-L1; details: hPD-L1
T4 construct: hPD-L1 residues, 18–134, C-terminal His-tag; His-tag (C); made in house; host or cells: Escherichia coli BL21 (DE3)

murine PD-L1 = biological target: T5, murine PD-L1 (Mus musculus, UniProt Q9EP73); test: MicroScale Thermophoresis (MST) binding assay, murine PD-L1; details: mPD-L1
T5 construct: mPD-L1 residues, 19–134; made in house; host or cells: Escherichia coli BL21 (DE3)

[3] = biological target: T6, hPD-1/hPD-L1 immune checkpoint (hPD-L1 aAPCs and Jurkat hPD-1 effector cells) (Homo sapiens, UniProt Q9NZQ7); test: hPD-1/hPD-L1 immune checkpoint blockade cell-based assay (Promega Blockade Bioassay)
T6 construct: host or cells: CHO K-1 (hPD-L1 aAPCs) and Jurkat T cells (hPD-1 effector cells)

human PD-L1 [4] = biological target: T4, human PD-L1; test: 1H NMR binding assay; details: molar ratio 1:1
Procedure: The direct binding of the most prominent compounds 2k and 3d to the human PD-L1 was also confirmed with a ^1H NMR method (Figure S3).
Figure S2 ELISA assay results.
High-binding 96 well plates (Thermo Scientific, cat. 439454) were coated with 1.2 μg/ml (50 μL/well) of Fc-tagged human PD-1 (Recepton Sp. z o.o., cat. R1-001-1) and incubated overnight at 4 ◦C. The plates were warmed to room temperature, washed with wash buffer (1 x PBS, 0.05% Tween 20, pH 7.4) and blocked with 1 % BSA in 1 x PBS, pH 7.4 for 2 h. Standard curve was generated with 0.02 – 50 ug/mL His- and Fc- tagged human PD-L1 (Recepton Sp. z o.o., cat. R1-002-1). […] The bound ligand was detected with the addition of 50 μL/well biotinylated Anty-His antibody (Southern Biotech, cat. 4603-08) followed by 1 h incubation, wash steps and addition of 50 μL/well streptavidin-HRP (Thermo Scientific, cat. 21126). […] The absorbance readings were made on Tecan Spark at the wavelength 450 nm and the reference wavelength 655 nm. IC50 was calculated based on the Δ((A450-A655) from sample – (A450-A655) from background) readings fitted in the plot using a Hill’s […]
For NMR measurements, the buffer was exchanged by gel filtration to PBS pH 7.4. […] All spectra were recorded at 300 K using a Bruker Avance III 600 MHz spectrometer. […]

primary human T cells = test: Flow cytometry of activation markers on primary T cells (PBMCs on hPD-L1 aAPCs); type: cell-based; details: 48 h
Procedure: The biological activity of the compound 2k was further verified on the primary T cells. For this, peripheral blood mononuclear cells (PBMCs) isolated from the blood of healthy donors were contacted with hPD-L1 aAPCs to provide TCR-mediated activation of T cells and the engagement of PD-1/PD-L1 immune checkpoint. The cells were then analyzed with flow cytometry following the gating for CD4^+ and CD8^+ T cells. The blockade of the PD-1/PD-L1 immune checkpoint was expected to increase the activation of T cells. In the experiment, atezolizumab and compound 2k were used. […] Because the prolonged activation of T cells leads to the increase of the expression of immune checkpoint molecules,[30] we have monitored the expression of PD-1 protein itself as an indicator of the late T cell activation and exhaustion. […] This confirms the bioactivity of the compound 2k in the context of primary T cells.
Blood samples from healthy donors were purchased from the Regional Center of Blood Donation and Blood Therapy in Krakow. PBMCs were isolated by a density gradient centrifugation using Pancoll human separating solutions (PAN-Biotech) and then resuspended in RPMI 1640 medium (Biowest) containing 10% FBS (Biowest).
PBMCs were added to the preseeded aAPCs at the density of 400 000 cells/well and incubated in the presence of compound 2k, DMSO, and with or without atezolizumab (5 μg/mL) as an anti-PD-L1 monoclonal antibody. After 48 h, cells were detached using TrypLe Select Enzyme (Thermo Fisher Scientific), collected into 5 mL round-bottom tubes, and washed with flow cytometry staining buffer (Thermo Fisher Scientific). For flow cytometry analysis, cells were stained using monoclonal antibodies: anti-CD69-APC, anti-CD4-FITC, anti-CD8-BV510, and anti-PD1-PECy7 (Becton Dickinson, BD). Following 20 min of incubation at room temperature, cells were washed, resuspended in PBS, and analyzed using a FACSCanto II flow cytometer (BD) and FACSDiva software (BD). The data analysis was carried out with FACSuite software (BD).

T4 sequence (Q9NZQ7 18-134): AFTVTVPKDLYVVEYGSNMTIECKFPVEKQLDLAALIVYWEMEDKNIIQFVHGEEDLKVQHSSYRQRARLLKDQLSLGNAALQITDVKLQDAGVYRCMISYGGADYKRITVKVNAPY
T2 sequence (Q9NZQ7 18-134, stated change not applied, one chain of several): as the sequence (Q9NZQ7 18-134) above
T5 sequence (Q9EP73 19-134): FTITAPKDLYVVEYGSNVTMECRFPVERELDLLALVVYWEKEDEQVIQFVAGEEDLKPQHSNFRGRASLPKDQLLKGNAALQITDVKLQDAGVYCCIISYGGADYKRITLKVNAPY
T6 sequence (Q9NZQ7 19-290): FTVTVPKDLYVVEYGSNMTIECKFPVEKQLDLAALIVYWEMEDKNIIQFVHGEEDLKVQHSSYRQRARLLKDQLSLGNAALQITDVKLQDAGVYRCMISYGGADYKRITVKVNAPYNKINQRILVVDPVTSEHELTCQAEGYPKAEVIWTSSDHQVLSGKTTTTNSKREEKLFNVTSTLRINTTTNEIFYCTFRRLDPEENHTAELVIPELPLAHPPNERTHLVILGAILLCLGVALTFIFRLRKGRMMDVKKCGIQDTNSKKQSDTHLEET
T3 sequence (Q9NZQ7 19-238 limits assumed, one chain of several): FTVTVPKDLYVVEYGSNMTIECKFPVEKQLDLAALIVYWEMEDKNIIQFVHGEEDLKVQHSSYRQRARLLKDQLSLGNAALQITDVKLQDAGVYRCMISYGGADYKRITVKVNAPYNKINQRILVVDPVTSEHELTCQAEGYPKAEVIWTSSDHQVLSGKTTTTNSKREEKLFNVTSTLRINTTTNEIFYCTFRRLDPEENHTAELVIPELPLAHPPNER
T1 sequence (Q9NZQ7 18-134, one chain of several): as the sequence (Q9NZQ7 18-134) above

BrCc1cccc(-c2ccccc2)c1Br [1a, 2-bromo-3-(bromomethyl)-1,1′-biphenyl]
dissociation of the wtPD-1/PD-L1 complex (wtPD-1/PD-L1 complex): not able to dissociate | dissociation of the mutant N66A-PD-1/PD-L1 complex (N66A-PD-1/PD-L1 complex): capable of dissociating; also recorded: all PD-1 peaks are restored; also recorded: dissociated

OCc1cccc(-c2ccccc2)c1-c1ccccc1 [1b, [1,1′:2′,1″-terphenyl]-3′-ylmethanol]
IC50 [1]: > 100000 nM

OCc1cccc(-c2ccccc2)c1F [1c]
dissociation of the wtPD-1/PD-L1 complex (wtPD-1/PD-L1 complex): not potent enough to dissociate | dissociation of the mutant N66A-PD-1/PD-L1 complex (N66A-PD-1/PD-L1 complex): capable of dissociating; also recorded: all PD-1 peaks are restored; also recorded: dissociated

O=C(NCCCN1CCOCC1)c1ccc(OCc2cccc(-c3ccccc3)c2Br)c(Br)c1 [2f, 4-(3-(3-Bromo-4-((2-bromo-[1,1′-biphenyl]-3-yl)methoxy)benzamido)propyl)morpholin-4-ium Hydrochloride]
IC50 [1]: 13200 ± 150 nM

CC(=O)NCCNCc1ccc(OCc2cccc(-c3ccccc3)c2Br)c(Br)c1 [2g, N-(2-((3-Bromo-4-((2-bromo-[1,1′-biphenyl]-3-yl)methoxy)benzyl)amino)ethyl)acetamide]
IC50 [1]: 12.2 ± 0.2 nM | Kd (human PD-L1 [2]): 3.17 nM and 3.2 nM | MST KD (murine PD-L1): no activity | toxicity of the compound observed above concentration ([3]; EC50 estimated on partial data because of it): above 10 μM | EC50 ([3]; cell based assay, Table S1): 6700 ± 1100 nM

O=C(O)[C@@H]1CCCCN1Cc1ccc(OCc2cccc(-c3ccccc3)c2Br)cc1 [2h, (S)-1-(4-((2-Bromo-[1,1′-biphenyl]-3-yl)methoxy)benzyl)piperidine-2-carboxylic Acid]
IC50 [1]: 522 ± 0.5 nM

Cc1cc(CN2CCCC[C@H]2C(=O)O)ccc1OCc1cccc(-c2ccccc2)c1Br [2i, (S)-1-(4-((2-Bromo-[1,1′-biphenyl]-3-yl)methoxy)-3-methylbenzyl)piperidine-2-carboxylic Acid]
MST KD (murine PD-L1): no activity

COc1cc(CN2CCCC[C@H]2C(=O)O)ccc1OCc1cccc(-c2ccccc2)c1Br [2j, (S)-1-(4-((2-Bromo-[1,1′-biphenyl]-3-yl)methoxy)-3-methoxybenzyl)piperidine-2-carboxylic Acid]
IC50 [1]: 204 ± 6.4 nM | EC50 ([3]; cell based assay, Table S1): > 500000 nM

N#Cc1cc(COc2cc(OCc3cccc(-c4ccccc4)c3Br)c(Cl)cc2CN2C[C@@H](O)C[C@H]2C(=O)O)ccn1 [3d]
direct binding to hPD-L1 (1H NMR) (human PD-L1 [4]): caused flattening of 2D spectra characteristic for the dimerization; also recorded: caused a characteristic dimerization of hPD-L1 | solubility in DMSO/water conditions ([3]; disallowed data collection for the two highest concentrations): solubility problems

O=C(O)[C@@H]1C[C@H](O)CN1Cc1ccc(OCc2cccc(-c3ccccc3)c2-c2ccccc2)c(Br)c1 [4f, (2S,4S)-1-(4-([1,1′:2′,1″-Terphenyl]-3′-ylmethoxy)-3-bromobenzyl)-4-hydroxypyrrolidine-2-carboxylic Acid]
IC50 [1]: 49100 ± 150 nM

N#Cc1ccc(-c2cccc(COc3ccc(C=O)cc3Br)c2Br)cc1 [4g, 2′-Bromo-3′-((2-bromo-4-formylphenoxy)methyl)-[1,1′-biphenyl]-4-carbonitrile]
IC50 [1]: 29400 ± 450 nM

Cc1c(COc2cc(OCc3cccc(C#N)c3)c(CN3C[C@H](O)C[C@@H]3C(=O)O)cc2Cl)cccc1-c1ccc2c(c1)OCCO2 [BMS-1166, reference compound]
MST KD (murine PD-L1): no activity

Durvalumab: a clinically relevant PD-L1-blocking antibody; positive control anti-hPD-L1 monoclonal antibody [reference compound]
EC50 ([3]; reference antibody, Hill fit): 0.2 ± 0.06 nM

atezolizumab: an anti-PD-L1 therapeutic antibody [reference compound]
expression of PD-1 receptor on the surface of CD4+ and CD8+ T cells (primary human T cells): significant increase | expression of early T-cell activation marker CD69 (primary human T cells): Neither of the two molecules was able to increase
